Results: ChEMBL document CHEMBL5500394, “Structure-Activity Studies of 1,2,4-Oxadiazoles for the Inhibition of the NAD+-Dependent Lysine Deacylase Sirtuin 2” (J Med Chem, 2024)
Active and inactive are the calls of the source. No cut-off for these calls is given here.

Tests used:
[1] = biological target: T1, NAD-dependent protein deacetylase sirtuin-2 (Homo sapiens, UniProt Q8IXJ6); assay: Inhibition of human Sirt2 (56 to 356 residues) demyristoylation expressed in Escherichia coli BL21 (DE3) using ZMML as substrate incubated for 4 hrs in presence of NAD+ by fluorescence based microplate reader assay
T1 sequence (Q8IXJ6 whole entry): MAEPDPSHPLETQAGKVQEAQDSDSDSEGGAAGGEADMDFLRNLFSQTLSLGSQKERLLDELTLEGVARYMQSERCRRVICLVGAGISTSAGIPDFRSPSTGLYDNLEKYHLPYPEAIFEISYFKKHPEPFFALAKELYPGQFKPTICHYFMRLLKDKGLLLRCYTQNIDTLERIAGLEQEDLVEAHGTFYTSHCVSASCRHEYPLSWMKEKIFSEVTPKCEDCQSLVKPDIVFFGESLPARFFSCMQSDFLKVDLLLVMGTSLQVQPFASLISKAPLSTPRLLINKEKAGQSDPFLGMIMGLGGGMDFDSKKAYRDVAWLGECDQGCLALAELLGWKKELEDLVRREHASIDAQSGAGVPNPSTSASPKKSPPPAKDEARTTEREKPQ

[2] = biological target: T1, NAD-dependent protein deacetylase sirtuin-2; assay: Inhibition of human Sirt2 (56 to 356 residues) deacetylation expressed in Escherichia coli BL21 (DE3) using ZMAL as substrate incubated for 4 hrs in presence of NAD+ by fluorescence based microplate reader assay
[3] = test system: PC-3M-luc; conditions: Homo sapiens, dose 10-20 µM, time 3.0 day
[4] = biological target: T2, NAD-dependent protein deacetylase sirtuin-2 (Homo sapiens) (UniProt Q8IXJ6); conditions: PC-3M-luc, dose 20.0 µM, time 6.0 hrs
T2 sequence (whole entry): T1 sequence (Q8IXJ6 whole entry)

[5] = Inhibition of schistosoma mansoni Sirt2 (21 to 322 residues) deacetylation expressed in Escherichia coli BL21 (DE3) using ZMAL as substrate incubated for 1 hr in presence of NAD+ by fluorescence based microplate reader assay
[6] = biological target: T2, NAD-dependent protein deacetylase sirtuin-2 (Homo sapiens); assay: Induction of human Sirt2 stabilization (56 to 356 residues) expressed in Escherichia coli BL21 (DE3) assessed as change in melting temperature at 25 uM in presence of NAD+ by differential scanning fluorimetry analysis
[7] = test system: HeLa; assay: Cytotoxicity against human HeLa cells at 1 to 25 uM incubated for 72 hrs by MTS assay; assay type: functional, cell-based; conditions: dose 1-25 µM
[8] = biological target: T1, NAD-dependent protein deacetylase sirtuin-2; assay: Inhibition of recombinant human C-terminal His-tagged Sirt2 (50 to 356 residues) expressed in Escherichia coli using QPKKac as substrate
[9] = biological target: T1, NAD-dependent protein deacetylase sirtuin-2; assay: Inhibition of recombinant human C-terminal His-tagged Sirt2 (50 to 356 residues) expressed in Escherichia coli using r ETDKmyr as substrate

IC50 [1] [µM] | IC50 [2] [µM] | Compound | other results
6.2 | 0.9 | Cc1c(F)cccc1CN1CCCC(Cc2nc(-c3ccc(NC(=S)Nc4ccccc4)cc3)no2)C1 (stereo unspecified) | 
25 | 0.62 | COc1ccc(NC(=O)Nc2ccc(-c3noc(CC4CCCN(Cc5cccc(F)c5C)C4)n3)cc2)cc1 (stereo unspecified) | 
6.65 | 0.64 | Cc1c(F)cccc1CN1CCCC(Cc2nc(-c3ccc(NC(=S)NCc4ccccc4)cc3)no2)C1 (stereo unspecified) | inhibition [4]: Active
11 |  | CC(=O)Nc1ccc(-c2noc(CC3CCCN(Cc4cccc(F)c4C)C3)n2)cc1 (stereo unspecified) | IC50 [5]: 14 µM
 | 0.67 | Cc1c(F)cccc1CN1CCCC(Cc2nc(-c3ccc(NC(=O)c4ccc(Cl)s4)cc3)no2)C1 (stereo unspecified) | 
22.2 | 17.8 | Cc1c(F)cccc1CN1CCCC(Cc2nc(-c3ccc(N)cc3)no2)C1 (stereo unspecified) | inhibition [3]: inactive; Activity [6]: inactive; Activity [7]: inactive; inhibition [4]: inactive
22.3 | 0.88 | COc1cccc(C(=O)Nc2ccc(-c3noc(CC4CCCN(Cc5cccc(F)c5C)C4)n3)cc2)c1 (stereo unspecified) | 
27.7 | 1.1 | COc1ccc(CC(=O)Nc2ccc(-c3noc(CC4CCCN(Cc5cccc(F)c5C)C4)n3)cc2)cc1 (stereo unspecified) | 
 |  | CCCCCCCCCCCCNC(=S)NCCCC[C@H](NS(C)(=O)=O)C(=O)N[C@@H](C)C(=O)N[C@@H](CCCNC(=N)N)C(N)=O | IC50 [8]: 0.04 µM; IC50 [9]: 0.17 µM
10.2 | 1.07 | Cc1c(F)cccc1CN1CCCC(Cc2nc(-c3ccc(NC(=O)NCc4ccccc4)cc3)no2)C1 (stereo unspecified) | 
20.1 | 0.21 | Cc1c(F)cccc1CN1CCCC(Cc2nc(-c3ccc(NC(=O)Nc4ccccc4)cc3)no2)C1 (stereo unspecified) | 
12.6 | 0.43 | COc1ccc(C(=O)Nc2ccc(-c3noc(CC4CCCN(Cc5cccc(F)c5C)C4)n3)cc2)cc1 (stereo unspecified) | 

Compound | IC50 [1] [µM] | IC50 [2] [µM] | other results
Cc1cc(C)nc(SCC(=O)Nc2ncc(Cc3cccc(OCc4cn(Cc5ccc(OCCN6CCOCC6)cc5)nn4)c3)s2)n1 | 2.4 |  | inhibition [3]: Active; inhibition [4]: Active
